In brackets after ≈: the same amount, converted by molar mass.
Columns and labels:
Staph. aureus 2865 = assay: Agar dilution, antagonist-free medium; conditions: Staphylococcus aureus, 2865, 20 h
E. coli TEM 2+ 4351 [1] = assay: Agar dilution, antagonist-free medium; conditions: Escherichia coli, 20 h
E. coli DC2 4353 = assay: Agar dilution, antagonist-free medium; conditions: Escherichia coli, DC24353, 20 h
E. coli 2891 [2] = assay: Agar dilution, antagonist-free medium; conditions: Escherichia coli, 2891, 20 h
Sal. typhimurium 3860 [3] = assay: Agar dilution, antagonist-free medium; conditions: Salmonella enterica, 20 h
Ent. cloacae P99- 2647 [4] = assay: Agar dilution, antagonist-free medium; conditions: Enterobacter cloacae, P992647, 20 h
Prot. vulgaris 2829 [5] = assay: Agar dilution, antagonist-free medium; conditions: Proteus vulgaris, 2829, 20 h
Ps. aeruginosa 4279 = assay: Agar dilution, antagonist-free medium; conditions: Pseudomonas aeruginosa, 4279, 20 h
Ser. marcescens 2840 [6] = assay: Agar dilution, antagonist-free medium; conditions: Serratia marcescens, 2840, 20 h
[7] = system: Actinomyces naeslundii 4053; assay: Anaerobic agar dilution, Wilkens-Chalgren agar; assay type: cell-based; conditions: Actinomyces naeslundii, 4053; anaerobic, inoculum 10^6 cfu/spot, 35° C., 48 hours; read-out: MIC
Eubacterium limosum 3344 = assay: Anaerobic agar dilution, Wilkens-Chalgren agar; assay type: cell-based; conditions: inoculum 10^6 cfu/spot, 35° C., 48 hours
Method: (a) Wilkens-Chalgren agar was used instead of antagonist-free medium (Roche);
(b) The inoculum/spot was about 10^6 instead of about 10^4 ;
(c) The incubation period was for 48 hours, not 24 hours; and
(d) Incubations were performed under anaerobic conditions.

[8] = system: Propionibacterium acnes 2249; assay: Anaerobic agar dilution, Wilkens-Chalgren agar; assay type: cell-based; conditions: Cutibacterium acnes, 2249; anaerobic, inoculum 10^6 cfu/spot, 35° C., 48 hours; read-out: MIC
[9] = system: Peptostreptococcus anaerobius 3282; assay: Anaerobic agar dilution, Wilkens-Chalgren agar; assay type: cell-based; conditions: Peptostreptococcus anaerobius, 3282; anaerobic, inoculum 10^6 cfu/spot, 35° C., 48 hours; read-out: MIC
[10] = system: Clostridium perfringens NCCLS control strain 4418; assay: microbe, parasite or virus in culture; assay type: cell-based; conditions: 48 h
C. perfringens 2237 = assay: microbe, parasite or virus in culture; assay type: cell-based; conditions: Clostridium perfringens, 2237, 48 h
C. perfringens 3508 = assay: microbe, parasite or virus in culture; assay type: cell-based; conditions: Clostridium perfringens, 3508, 48 h
C. perfringens 3509 = assay: microbe, parasite or virus in culture; assay type: cell-based; conditions: Clostridium perfringens, 3509, 48 h
C. perfringens 3510 = assay: microbe, parasite or virus in culture; assay type: cell-based; conditions: Clostridium perfringens, 3510, 48 h
C. perfringens 3511 = assay: microbe, parasite or virus in culture; assay type: cell-based; conditions: Clostridium perfringens, 3511, 48 h
C. perfringens 3512 = assay: microbe, parasite or virus in culture; assay type: cell-based; conditions: Clostridium perfringens, 3512, 48 h
C. perfringens 3513 = assay: microbe, parasite or virus in culture; assay type: cell-based; conditions: Clostridium perfringens, 3513, 48 h
C. ramosum 4272 = assay: Anaerobic agar dilution, Wilkens-Chalgren agar; assay type: cell-based; conditions: Thomasclavelia ramosa, 4272; anaerobic, inoculum 10^6 cfu/spot, 35° C., 48 hours; read-out: MIC
[11] = system: C. difficile Clind^r 4273; assay: Anaerobic agar dilution, Wilkens-Chalgren agar; assay type: cell-based; conditions: Clostridioides difficile; anaerobic, inoculum 10^6 cfu/spot, 35° C., 48 hours; read-out: MIC
C. difficile Fox^r 4380 = assay: Anaerobic agar dilution, Wilkens-Chalgren agar; assay type: cell-based; conditions: Clostridioides difficile; anaerobic, inoculum 10^6 cfu/spot, 35° C., 48 hours; read-out: MIC
[12] = system: Bifidobacterium dentium Fox^r 4427; assay: Anaerobic agar dilution, Wilkens-Chalgren agar; assay type: cell-based; conditions: 48 h
[13] = system: Bacteroides fragilis Met^r . Pen^r 4324; assay: Anaerobic agar dilution, Wilkens-Chalgren agar; assay type: cell-based; conditions: anaerobic, inoculum 10^6 cfu/spot, 35° C., 48 hours, read-out: MIC
B. fragilis Pen^r 3214 = assay: Anaerobic agar dilution, Wilkens-Chalgren agar; assay type: cell-based; conditions: Bacteroides fragilis; anaerobic, inoculum 10^6 cfu/spot, 35° C., 48 hours; read-out: MIC
[14] = system: B. fragilis Clind^r, Fox^r, Tet^r 4360; assay: Anaerobic agar dilution, Wilkens-Chalgren agar; assay type: cell-based; conditions: Bacteroides fragilis; anaerobic, inoculum 10^6 cfu/spot, 35° C., 48 hours; read-out: MIC
[15] = system: B. fragilis NCCLS control strain 4419; assay: Anaerobic agar dilution, Wilkens-Chalgren agar; assay type: cell-based; conditions: Bacteroides fragilis; anaerobic, inoculum 10^6 cfu/spot, 35° C., 48 hours; read-out: MIC
[16] = system: B. distasonis Pen^r, Fox^r, Clind^r 4361; assay: Anaerobic agar dilution, Wilkens-Chalgren agar; assay type: cell-based; conditions: Parabacteroides distasonis; anaerobic, inoculum 10^6 cfu/spot, 35° C., 48 hours; read-out: MIC
[17] = system: B. distasonis Pen^r, Fox^r 3445; assay: Anaerobic agar dilution, Wilkens-Chalgren agar; assay type: cell-based; conditions: Parabacteroides distasonis, 48 h
B. ovatus Pen^r 3248 = assay: Anaerobic agar dilution, Wilkens-Chalgren agar; assay type: cell-based; conditions: Bacteroides ovatus; anaerobic, inoculum 10^6 cfu/spot, 35° C., 48 hours; read-out: MIC
[18] = system: B. thetalotamicron Clind^r 4362; assay: Anaerobic agar dilution, Wilkens-Chalgren agar; assay type: cell-based; conditions: anaerobic, inoculum 10^6 cfu/spot, 35° C., 48 hours; read-out: MIC
[19] = system: B. thetalotamicron Clind^r, NCCLS control strain 4420; assay: Anaerobic agar dilution, Wilkens-Chalgren agar; assay type: cell-based; conditions: anaerobic, inoculum 10^6 cfu/spot, 35° C., 48 hours; read-out: MIC
B. asaccharolyticus 4271 = assay: Anaerobic agar dilution, Wilkens-Chalgren agar; assay type: cell-based; conditions: Porphyromonas asaccharolytica, 4271; anaerobic, inoculum 10^6 cfu/spot, 35° C., 48 hours; read-out: MIC
[20] = system: Fusobacterium mortiferum Fox^r 3345; assay: Anaerobic agar dilution, Wilkens-Chalgren agar; assay type: cell-based; conditions: anaerobic, inoculum 10^6 cfu/spot, 35° C., 48 hours, read-out: MIC
[21] = system: Veillonella alcalescens 1952; assay: Anaerobic agar dilution, Wilkens-Chalgren agar; assay type: cell-based; conditions: Veillonella parvula, 1952; anaerobic, inoculum 10^6 cfu/spot, 35° C., 48 hours; read-out: MIC
[22] = system: S. aureus Gm^r Meth^r 4310; assay: Agar dilution, trypticase soy agar; conditions: Staphylococcus aureus, 20 h
E. coli TEM 2+ 4351 [23] = assay: Agar dilution, trypticase soy agar; conditions: Escherichia coli, 20 h
E. coli TEM 2+ DC2 4352 = assay: Agar dilution, trypticase soy agar; conditions: Escherichia coli, 20 h
E. coli 2891 [24] = assay: Agar dilution, trypticase soy agar; conditions: Escherichia coli, 2891, 20 h
Sal. typhimurium 3860 [25] = assay: Agar dilution, trypticase soy agar; conditions: Salmonella enterica, 20 h
Ent. cloacae P99+ 2646 = assay: Agar dilution, trypticase soy agar; conditions: Enterobacter cloacae, 20 h
Ent. cloacae P99- 2647 [26] = assay: Agar dilution, trypticase soy agar; conditions: Enterobacter cloacae, P992647, 20 h
K. pneumoniae K1+ 4354 = assay: Agar dilution, trypticase soy agar; conditions: Klebsiella pneumoniae, 20 h
K. pneumoniae 4005 = assay: Agar dilution, trypticase soy agar; conditions: Klebsiella pneumoniae, 4005, 20 h
Prot. vulgaris 2829 [27] = assay: Agar dilution, trypticase soy agar; conditions: Proteus vulgaris, 2829, 20 h
Prot. morganii Sm^r 2833 = assay: Agar dilution, trypticase soy agar; conditions: Morganella morganii, 20 h
[28] = system: Prot. mirabilis Gm^r 2830; assay: Agar dilution, trypticase soy agar; conditions: Proteus mirabilis, 20 h
[29] = system: Ps. aeruginosa RPL11+ 3350; assay: Agar dilution, trypticase soy agar; conditions: Pseudomonas aeruginosa, 20 h
Ser. marcescens 2840 [30] = assay: Agar dilution, trypticase soy agar; conditions: Serratia marcescens, 2840, 20 h

For `N[C@@H]1CONC1=O` [D-Cycloserine, D-cycloserine, reference compound], the MIC (Staph. aureus 2865) was 2 µg/mL (≈ 19.6 µM), the MIC (E. coli TEM 2+ 4351 [1]) was 2 µg/mL (≈ 19.6 µM) and the MIC (E. coli DC2 4353) was 8 µg/mL (≈ 78.4 µM). The MIC (E. coli 2891 [2]) was 4 µg/mL (≈ 39.2 µM), the MIC (Sal. typhimurium 3860 [3]) was 4 µg/mL (≈ 39.2 µM) and the MIC (Ent. cloacae P99- 2647 [4]) was 4 µg/mL (≈ 39.2 µM). For the same molecule, the MIC (Prot. vulgaris 2829 [5]) was 32 µg/mL (≈ 313 µM), the MIC (Ps. aeruginosa 4279) was 16 µg/mL (≈ 157 µM) and the MIC (Ser. marcescens 2840 [6]) was > 256 µg/mL.

`CO[C@@]1(NC(=O)Cc2cccs2)C(=O)N2C(C(=O)O)=C(COC(N)=O)CS[C@@H]21` [CEFOXITIN, Cefoxitin, reference compound] showed an MIC [7] of 0.015 µg/mL (≈ 0.0351 µM), an MIC (Eubacterium limosum 3344) of 1 µg/mL (≈ 2.34 µM) and an MIC [8] of 0.06 µg/mL (≈ 0.14 µM). For the same molecule, the MIC [9] was 1 µg/mL (≈ 2.34 µM), the MIC [10] was 1 µg/mL (≈ 2.34 µM) and the MIC (C. perfringens 2237) was 2 µg/mL (≈ 4.68 µM). For the same molecule, the MIC (C. perfringens 3508) was 0.25 µg/mL (≈ 0.585 µM), the MIC (C. perfringens 3509) was 0.25 µg/mL (≈ 0.585 µM) and the MIC (C. perfringens 3510) was 0.5 µg/mL (≈ 1.17 µM). The MIC (C. perfringens 3511) was 1 µg/mL (≈ 2.34 µM), the MIC (C. perfringens 3512) was 1 µg/mL (≈ 2.34 µM) and the MIC (C. perfringens 3513) was 2 µg/mL (≈ 4.68 µM). It also gave an MIC (C. ramosum 4272) of 32 µg/mL (≈ 74.9 µM), an MIC [11] of 4 µg/mL (≈ 9.36 µM) and an MIC (C. difficile Fox^r 4380) of 64 µg/mL (≈ 150 µM). For the same molecule, the MIC [12] was 64 µg/mL (≈ 150 µM), the MIC [13] was 4 µg/mL (≈ 9.36 µM) and the MIC (B. fragilis Pen^r 3214) was 16 µg/mL (≈ 37.4 µM). The MIC [14] was 32 µg/mL (≈ 74.9 µM), the MIC [15] was 8 µg/mL (≈ 18.7 µM) and the MIC [16] was 32 µg/mL (≈ 74.9 µM). It also gave an MIC [17] of 128 µg/mL (≈ 299 µM), an MIC (B. ovatus Pen^r 3248) of 32 µg/mL (≈ 74.9 µM) and an MIC [18] of 32 µg/mL (≈ 74.9 µM). The MIC [19] was 32 µg/mL (≈ 74.9 µM), the MIC (B. asaccharolyticus 4271) was 0.5 µg/mL (≈ 1.17 µM) and the MIC [20] was 32 µg/mL (≈ 74.9 µM). The MIC [21] was 1 µg/mL (≈ 2.34 µM), the MIC [22] was > 128 µg/mL and the MIC (E. coli TEM 2+ 4351 [23]) was 4 µg/mL (≈ 9.36 µM). The MIC (E. coli TEM 2+ DC2 4352) was 2 µg/mL (≈ 4.68 µM), the MIC (E. coli 2891 [24]) was 64 µg/mL (≈ 150 µM) and the MIC (Sal. typhimurium 3860 [25]) was 4 µg/mL (≈ 9.36 µM). The MIC (Ent. cloacae P99+ 2646) was 128 µg/mL (≈ 299 µM), the MIC (Ent. cloacae P99- 2647 [26]) was 8 µg/mL (≈ 18.7 µM) and the MIC (K. pneumoniae K1+ 4354) was 4 µg/mL (≈ 9.36 µM). The MIC (K. pneumoniae 4005) was 2 µg/mL (≈ 4.68 µM), the MIC (Prot. vulgaris 2829 [27]) was 4 µg/mL (≈ 9.36 µM) and the MIC (Prot. morganii Sm^r 2833) was 8 µg/mL (≈ 18.7 µM). The MIC [28] was 4 µg/mL (≈ 9.36 µM), the MIC [29] was > 128 µg/mL and the MIC (Ser. marcescens 2840 [30]) was 32 µg/mL (≈ 74.9 µM).

— patent US4956294A, “Culture of Streptoverticillium synroense for producing an antibacterial” (Merck & Co., Inc., priority 1989, dated 1990)
